Measured values published in PubChem BioAssay (NCI).
“And” between values parts separate entries of the source, which are not always exact repeats. Equal values may be shown once.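 Method: 48-hour compound exposure of cells in 96-well plates, five concentrations, linear interpolation of endpoints. Abbreviation: GI50, concentration required for 50% inhibition of growth. TGI denotes the concentration required for complete inhibition of growth.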

Experiments:
Test in all cases: DTP human tumour cell line panel, 48 h
[1] = test system: KM12 colon
[2] = test system: SK-MEL-5 melanoma
[3] = test system: M19-MEL melanoma
[4] = test system: SF-539 CNS
[5] = test system: SR leukemia
[6] = test system: HOP-18 NSCLC
[7] = test system: KM20L2 colon
[8] = test system: T-47D breast
[9] = test system: DMS 273 small cell lung
[10] = test system: HCT-15 colon
[11] = test system: DMS 114 small cell lung
[12] = test system: SW-620 colon

| Structure (SMILES) | TGI [1] | TGI [2] | TGI [3] | TGI [4] | TGI [5] | TGI [6] | TGI [7] | TGI [8] | TGI [9] | TGI [10] | TGI [11] | TGI [12] | GI50 [1] | GI50 [2] | GI50 [4] | GI50 [12] |
| --- | --- | --- | --- | --- | --- | --- | --- | --- | --- | --- | --- | --- | --- | --- | --- | --- |
| Cc1cc(=O)[nH]c(NN2C(Cl)C(=O)C2c2ccccc2O)n1 (stereo not given) | > 100 µM | 17.2 µM | > 100 µM | > 58.6 µM | > 100 µM | 8.97 µM | > 100 µM | > 100 µM | 15.3 µM | > 100 µM | 6.44 µM | > 100 µM | – | – | – | – |
| Cc1c2cnccc2c(C)c2c1c1ccccc1n2CCCN | 0.815 µM and 0.286 µM | 1.44 µM and 2.17 µM | 0.915 µM | 1.35 µM | 0.349 µM | 2.65 µM | 0.989 µM | 2.03 µM | 0.619 µM | 0.724 µM and 1.11 µM | 1.02 µM | 0.878 µM and 0.211 µM | 0.0374 µM | 1.01 µM | 0.317 µM | 0.035 µM |
| CCC12C=CCN3CCC4(C(=C(C(=O)OC)[C@@H]1O)Nc1ccccc14)C32 (stereo not given in full) | 3.19 µM | 3.45 µM | 3.61 µM | 4.72 µM | 4.58 µM | 4.87 µM | 3.54 µM | – | 3.37 µM | 3.09 µM | 3.24 µM | 3.3 µM | – | – | – | – |
| CNS(=O)(=O)NNS(=O)(=O)c1ccc2ccccc2c1 | > 100 µM | > 100 µM | > 100 µM | > 100 µM | > 100 µM | > 100 µM | > 100 µM | – | > 100 µM | > 100 µM | > 100 µM | > 100 µM | – | – | – | – |
